Assay results reported in PubChem BioAssay (NCI).
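All cell lines were grown in 96-well plates and treated with compound for 48 hours. GI50: concentration for 50% inhibition of growth. The concentration for full growth arrest is given as TGI.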

What was measured:
Assay in all cases: inhibition of tumour cell growth, NCI panel, 48 h
[1] = test system: 786-0 renal
[2] = test system: A498 renal
[3] = test system: A549 NSCLC
[4] = test system: ACHN renal
[5] = test system: BT-549 breast
[6] = test system: CAKI-1 renal
[7] = test system: CCRF-CEM leukemia
[8] = test system: COLO 205 colon
[9] = test system: DU-145 prostate
[10] = test system: HCC-2998 colon
[11] = test system: HCT-116 colon
[12] = test system: HCT-15 colon
[13] = test system: HL-60(TB) leukemia
[14] = test system: HOP-62 NSCLC
[15] = test system: HOP-92 NSCLC
[16] = test system: HS 578T breast
[17] = test system: HT29 colon
[18] = test system: IGROV1 ovarian
[19] = test system: K-562 leukemia
[20] = test system: KM12 colon
[21] = test system: LOX IMVI melanoma
[22] = test system: M14 melanoma
[23] = test system: MALME-3M melanoma
[24] = test system: MCF7 breast
[25] = test system: MDA-MB-231 breast
[26] = test system: MDA-MB-435
[27] = test system: MOLT-4 leukemia
[28] = test system: NCI-H226 lung
[29] = test system: NCI-H23 lung
[30] = test system: NCI-H460 lung
[31] = test system: NCI-H522 lung
[32] = test system: NCI/ADR-RES ovarian
[33] = test system: OVCAR-3 ovarian
[34] = test system: OVCAR-4 ovarian
[35] = test system: OVCAR-5 ovarian
[36] = test system: OVCAR-8 ovarian
[37] = test system: PC-3 prostate
[38] = test system: RPMI-8226 leukemia
[39] = test system: RXF 393 renal
[40] = test system: SF-268 CNS
[41] = test system: SF-295 CNS
[42] = test system: SF-539 CNS
[43] = test system: SK-MEL-2 melanoma
[44] = test system: SK-MEL-28 melanoma
[45] = test system: SK-MEL-5 melanoma
[46] = test system: SK-OV-3 ovarian
[47] = test system: SN12C renal
[48] = test system: SNB-19 CNS
[49] = test system: SNB-75 CNS
[50] = test system: SR leukemia
[51] = test system: SW-620 colon
[52] = test system: T-47D breast
[53] = test system: TK-10 renal
[54] = test system: U251 CNS
[55] = test system: UACC-257 melanoma
[56] = test system: UACC-62 melanoma
[57] = test system: UO-31 renal

## NC(=S)N/N=C\c1nccc2c(C(F)(F)C(F)(F)C(F)(F)F)cccc12
[1]
  GI50: 0.26 µM
  TGI: 0.978 µM
[2]
  GI50: 0.464 µM
  TGI: 2.1 µM
[3]
  GI50: 0.0978 µM
  TGI: 1.1 µM
[4]
  GI50: 0.0582 µM
  TGI: 1.31 µM
[5]
  GI50: 0.313 µM
  TGI: 11.7 µM
[6]
  GI50: 0.183 µM
  TGI: 1.59 µM
[7]
  GI50: 0.0427 µM
  TGI: > 100 µM
[8]
  GI50: 0.0327 µM
  TGI: 1.9 µM
[9]
  GI50: 0.11 µM
  TGI: 2.92 µM
[10]
  GI50: 0.229 µM
  TGI: 4.48 µM
[11]
  GI50: 0.0348 µM
  TGI: 1.45 µM
[12]
  GI50: 0.0488 µM
  TGI: > 100 µM
[13]
  GI50: 0.0649 µM
  TGI: 0.665 µM
[14]
  GI50: 0.0752 µM
  TGI: 1.25 µM
[15]
  GI50: 0.116 µM
  TGI: 1.44 µM
[16]
  GI50: 0.889 µM
  TGI: 22.6 µM
[17]
  GI50: 0.137 µM
  TGI: 3.62 µM
[18]
  GI50: 0.223 µM
  TGI: 1.93 µM
[19]
  GI50: 0.346 µM
  TGI: > 100 µM
[20]
  GI50: 0.0825 µM
  TGI: 8.05 µM
[21]
  GI50: 0.0725 µM
  TGI: 1.34 µM
[22]
  GI50: 0.0662 µM
  TGI: 0.589 µM
[23]
  GI50: 0.189 µM
  TGI: 1.43 µM
[24]
  GI50: 0.0515 µM
  TGI: 7.54 µM
[25]
  GI50: 0.0561 µM
  TGI: 3 µM
[26]
  GI50: 0.376 µM
  TGI: > 31.6 µM
[27]
  GI50: 0.054 µM
  TGI: 8.8 µM
[28]
  GI50: 0.162 µM
  TGI: 1.12 µM
[29]
  GI50: 0.422 µM
  TGI: 12.4 µM
[30]
  GI50: 0.0619 µM
  TGI: 1.21 µM
[31]
  GI50: 0.211 µM
  TGI: 0.756 µM
[32]
  GI50: 0.167 µM
  TGI: 1.65 µM
[33]
  GI50: 0.0347 µM
  TGI: 2.22 µM
[34]
  GI50: 0.0329 µM
  TGI: 1.49 µM
[35]
  GI50: 0.123 µM
  TGI: 16.8 µM
[36]
  GI50: 0.0402 µM
  TGI: 1.59 µM
[37]
  GI50: 0.0661 µM
  TGI: > 22.5 µM
[38]
  GI50: 0.264 µM
[39]
  GI50: 0.113 µM
  TGI: 1.26 µM
[40]
  GI50: 0.0983 µM
  TGI: 4.22 µM
[41]
  GI50: 0.209 µM
  TGI: 1.7 µM
[42]
  GI50: 0.193 µM
  TGI: 0.772 µM
[43]
  GI50: 0.388 µM
  TGI: 3.23 µM
[44]
  GI50: 0.25 µM
  TGI: 3.26 µM
[45]
  GI50: 0.0996 µM
  TGI: 0.563 µM
[46]
  GI50: 0.0466 µM
  TGI: 1.43 µM
[47]
  GI50: 0.116 µM
  TGI: 2.31 µM
[48]
  GI50: 0.196 µM
  TGI: 5.21 µM
[49]
  GI50: 0.124 µM
  TGI: 2.87 µM
[50]
  GI50: 0.0433 µM
  TGI: > 32.4 µM
[51]
  GI50: 0.0538 µM
  TGI: 24.3 µM
[52]
  GI50: 0.0369 µM
  TGI: 1.51 µM
[53]
  GI50: 0.078 µM
  TGI: 2.3 µM
[54]
  GI50: 0.0569 µM
  TGI: 1.25 µM
[55]
  GI50: 0.12 µM
  TGI: 0.575 µM
[56]
  GI50: 0.171 µM
  TGI: 0.511 µM
[57]
  GI50: 0.09 µM
  TGI: 0.892 µM
